TGI data for 13 molecules are collected here from PubChem BioAssay (NCI).

Holding throughout (experiment): NCI-60 cell line screen, 48 h
Assay [1] relates to ACHN renal.
The subject of assay [2] is OVCAR-8 ovarian.
Assay [3] relates to T-47D breast.
The subject of assay [4] is BT-549 breast.
For assay [5], the system named is DU-145 prostate.
Assay [6] relates to HOP-92 NSCLC.
In assay [7] the test system is CAKI-1 renal.
The subject of assay [8] is MDA-MB-231 breast.
Assay [9] deals with NCI-H460 lung.
For assay [10], the system named is NCI-H23 lung.

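Dose response: 5 concentrations. Exposure: 48 h. Format: 96-well plates. Endpoint: linear interpolation; highest concentration if not reached. TGI marks complete inhibition of growth.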

`CCOC(=O)C(NC(=O)CC)(Nc1ccccc1F)C(F)(F)F` (stereo not given): the TGI in [1], in assay [2], in assay [3], in [4], in [5] and in [6] was above 100 µM throughout. The TGI in assay [7], in assay [8], in assay [9] and in assay [10] was above 100 µM throughout.
In the case of `CC(Br)CN(CC(C)Br)c1ccc2c(c1)Cc1ccccc1-2` (stereo not given), the TGI in [1] turned out to be 19.5 µM; in assay [2], 25.2 µM; in assay [3], 29.6 µM; in assay [4] it was 35.1 µM; in assay [5], 23 µM; in [6], 20.9 µM. Also, the TGI in assay [7] turned out to be 21.1 µM; in assay [8] it was 26.8 µM; in assay [9], 9.23 µM; in assay [10], 26.9 µM.
With `Cc1cccc2c(N)c3cccc(C(=O)NCC[N+](C)(C)[O-])c3nc12`, the TGI was 77.9 µM in assay [1]; 36.6 µM in assay [2]; above 100 µM in assay [3]; 41.8 µM in assay [4]; above 100 µM in assay [5]; 92.8 µM in [6]. Besides, the TGI in assay [7] was above 100 µM; in assay [8], 75.1 µM; in assay [9], 10.2 µM; in assay [10] it was 16.7 µM.
Consider `Fc1ccc(OCc2ccc3nc(-c4ccccc4)c(Cl)nc3c2)cc1`, for which the TGI in assay [1] was 71.7 µM; in assay [2], above 100 µM; in assay [3] it was above 100 µM; in assay [4], 85.8 µM; in assay [5] it was above 100 µM; in [6], 50.1 µM. Further, the TGI in assay [7] was 60.6 µM; in assay [8], 47.3 µM; in assay [9], above 100 µM; in assay [10], above 100 µM.
For the molecule `CN(C)CCN1C(=O)N(CCN(C)C)c2c3cc(O)ccc3nc3c([N+](=O)[O-])ccc1c23`, the TGI in assay [1] was determined as 19.1 µM; in assay [2] it was 36 µM; in assay [3], 39.2 µM; in assay [4], 40.6 µM; in [5] it was 27 µM; in [6] it was 37.3 µM. In addition, the TGI came out at 47.9 µM in assay [7], 25.4 µM in assay [8], 26.4 µM in assay [9] and 36.6 µM in [10].
For `COc1ccc2c(c1)-c1nc(=S)n(CCN(C)C)c3ccc([N+](=O)[O-])c(c13)N2`, the TGI in assay [1] came to 4.97 µM; in [2] it was 2.2 µM; in assay [3] it was 12.5 µM; in assay [4], 24 µM; in [5] it was 2.93 µM; in assay [6] it was 27.7 µM. Moreover, the TGI in assay [7] was found to be 7.61 µM; in assay [8], 2.68 µM; in assay [9], 1.71 µM; in assay [10], 17.9 µM.
On to `O=C(O)Cn1c[n+](NC(=O)Cc2ccccc2)cn1`, for which the TGI in assay [1], in [2], in assay [3], in [4], in assay [5] and in assay [6] was above 10 µM each time. Besides, the TGI in assay [7], in [8], in [9] and in assay [10] was above 10 µM each time.
Regarding `COc1ccc(CCn2ccc(=O)c(O)c2C)cc1OC`, the TGI in assay [1] is above 100 µM; in assay [2], above 100 µM; in assay [3], 85.7 µM; in assay [4], above 100 µM; in assay [5], 43 µM; in [6], 80.5 µM. Besides, the TGI in [7] was 12 µM; in [8] it was 6.2 µM; in assay [9] it was 31.2 µM; in [10] it was above 100 µM.
For `CC(C)(C)[Si](C)(C)OC1CCOC1(O)c1ccccn1` (stereo not given), the TGI in [1], in [2], in [3], in assay [4], in assay [5] and in assay [6] was above 100 µM in each case. The TGI in assay [7], in assay [8], in assay [9] and in [10] was above 100 µM in each case.
In the case of `N#Cc1ccnc(C(=O)N2CCCC2C(=O)O)c1` (stereo not given), the TGI in [1], in [2], in assay [3], in assay [4], in assay [5] and in assay [6] was above 100 µM in each case. Also, the TGI in assay [7], in [8], in assay [9] and in [10] was above 100 µM in each case.
As to `COc1cc2c3cc1Oc1cc(ccc1O)C[C@@H]1c4c(cc(OC)c(O)c4Oc4ccc(cc4)C[C@@H]3[N+](C)(C)CC2)CC[N+]1(C)C`, the TGI in [1] is above 100 µM; in assay [2], above 100 µM; in assay [3] it was 71.2 µM; in [4], above 100 µM; in assay [5] it was above 100 µM; in [6], above 100 µM. The TGI in assay [7], in assay [8], in assay [9] and in assay [10] was above 100 µM each time.
Regarding `O=C(O)CCSc1ncnc2nc[nH]c12`, the TGI in [1] is above 100 µM; in assay [2], above 100 µM; in assay [3], above 100 µM; in assay [4] it was above 100 µM; in [5], above 100 µM; in [6] it was 96.3 µM. Further, the TGI in assay [7], in assay [8], in [9] and in [10] was above 100 µM throughout.
Turning to `O=C1c2cccnc2C(=O)c2c1nc1ccccc1c2-c1ccc2c3c(nc4ccccc42)C(=O)c2cccnc2-c13`, the TGI was found to be 4.1 µM in [1]; 2.59 µM in assay [2]; 19.4 µM in assay [3]; 12.7 µM in [4]; 1.34 µM in assay [5]; 30.5 µM in [6]. Besides, the TGI amounted to 10 µM in assay [7], 9.49 µM in assay [8], 3.97 µM in assay [9] and 2.67 µM in assay [10].
